Measured values taken from patent publication US7067520B2, “Preventive or therapeutic medicines for diabetes containing fused-heterocyclic compounds or their salts” (Ishihara Sangyo Kaisha, Ltd., priority 2000, dated 2006).

Key:
L6 cells = assay: Glucose uptake test by L6 cells; format: cell-based; conditions: Rattus norvegicus, 1 hour, 2-deoxy-[3H]-glucose uptake, control (MEM solvent alone) = 100%, read-out: Ratio activity (%); for activity at 10 µg/mL: treatment concentration 10 μg/ml; for activity at 100 µg/mL: treatment concentration 100 μg/ml
Protocol: Glucose Uptake Test by L6 Cells
Each of compounds under test was applied to L6 cells (rat cells originally derived from skeletal muscles) by the following method to measure the stimulating effect on glucose uptake. Namely, L6 cells were suspended in α-minimum essential medium (hereinafter referred to simply as MEM) containing 10% fetal bovine serum (hereinafter referred to simply as FBS), and inoculated into a 96-well plastic plate in an amount of 5×10^4 cells/well and cultivated in an incubator (5% carbon dioxide gas, 37° C.) until the cells grew all over the well. Then, the culture medium was switched to MEM solution containing 2% BS, followed by cultivation further for from 7 to 10 ays (the culture medium was exchanged every three days) to differentiate the cells into skeletal muscle cells. Then, the culture medium was replaced with MEM solution without FBS, followed by cultivation for three hours, and then the compound under test prepared to a treatment concentration (diluted with MEM solution without FBS) was reacted with the skeletal muscle cells at 37° C. for 1 hour. The cells were washed with Krebs-Henseleit-Ringer buffer solution (hereinafter referred to simply as KHR buffer solution), and 2-deoxy-[^3H]-glucose was added to the cells in the KHR buffer solution, followed by treatment at 37° C. for 10 minutes. The treatment solution was removed, the cells were washed with the KHR buffer solution, then the cells were dissolved in a 1N sodium hydroxide solution in an appropriate amount, and the [^3H] radio activity was measured by means of a liquid scintillation counter (cpm) The percentage of the glucose uptake was represented by the percentage of radio activity when the compound under test was applied, taking the radio activity of the control (the MEM solvent alone was applied) as 100%. Each of the compounds as identified in Table 27 was used for treatment at a concentration of each of 10 μg/ml and 100 μg/ml to examine the stimulating effect on glucose uptake.

KK-Ay/Ta mice = assay: Test for hypoglycemic effect in KK-Ay/Ta mice; format: in vivo; conditions: 50 mg/kg single oral dose, percentage to level before administration, significant vs vehicle control (P≦0.05)
Protocol: Using KK-Ay/Ta mice (purchased from CLEA Japan, Inc.) as spontaneous diabetic type II, the hypoglycemic effect of each of compounds under test was confirmed by the following method.
Male KK-Ay/Ta mice sufficiently preliminarily bred and acclimatized were classified into groups, each consisting of six mice, and each of the compounds under test was administered. Each of the compounds under test as suspended in 0.5% carboxymethyl cellulose (manufactured by Nacalai Tesque), and each compound was orally administered singly in a dose of 50 mg/kg (10 ml/kg) by means of an oral conductor. At the same time, as a group of vehicle control, 0.5% carboxymethyl cellulose was administered in the same volume (10 ml/kg) as for the group of administration of compound under test.
Collection of blood was carried out by the following method before the administration of each of the compounds under test or the vehicle, and at the time as identified in Table 28 after the administration. The tail vein of each mouse was shallowly cut by the edge of a razor to cause bleeding in an amount of blood of from 10 to 20 μL, and the blood was collected by a micropipet. The collected blood samples were immediately mixed with a heparin solution (20 U/ml) (manufactured by Mochida Yakuhin) in the same amount as the respective collected blood samples, and subjected to centrifugation at 4° C. for 5 minutes (10,000 rpm) by means of a cooling centrifugal machine. The plasma after the centrifugation was obtained as a sample for blood glucose level measurement.
The blood glucose level was measured by means of glucose oxidase method, and measured by using a commercially available assay kit (Glucose CII TEST WAKO, manufactured by Wako Pure Chemical Industries, Ltd.). Measurement was carried out on the day after the collection of blood, and the obtained plasma was stored at −20° C. before the measurement.
The blood glucose level at the time of collection of blood was calculated as the percentage to the blood glucose level before administration of the compound under test, and the hypoglycemic effect of the compound under test was evaluated by comparison with the change of the blood glucose level (percentage) of the group of vehicle control at the time of collection of blood. The evaluation results of the hypoglycemic effect are considered to have a significant difference compared with the vehicle control by means of Wilcoxon's rank sum test (P≦0.05)

Row | SMILES | activity at 10 µg/mL (L6 cells) [%] | activity at 100 µg/mL (L6 cells) [%] | Rate of change of blood glucose level (KK-Ay/Ta mice; after 3 hours) [%] | melting point [°C] | Rate of change of blood glucose level (KK-Ay/Ta mice; after 6 hours) [%]
1 | CSc1nc2cc(C)nn2c(Nc2cccc(C#N)c2)c1C#N [compound 186] | > 115 | > 115 | 80 | 235 to 238 | –
2 | CSc1nc2ccnn2c(NCc2ccncc2)c1C#N [Compound No. 3, 7-(4-pyridylmethyl)amino-5-methylthiopyrazolo[1,5-a]pyrimidine-6-carbonitrile] | > 115 | > 115 | 78 | 153 to 154 | –
3 | CSc1nc2ccnn2c(NCC2OCCO2)c1C#N [compound 8] | – | > 115 | – | 157 to 158 | 68
4 | CSc1nc2ccnn2c(NCc2ccc(C)cc2)c1C#N [compound 50] | > 115 | > 115 | 74 | 159 | –
5 | CSc1nc2ccnn2c(NCc2cccnc2)c1C#N [compound 4] | – | > 115 | – | 192 | –
6 | CSc1nc2nc3ccccc3n2c(NCc2ccccc2)c1C#N [compound 47] | – | > 115 | – | 233 | –
7 | Cc1nc2ccnn2c(NCc2ccncc2)c1C#N [compound 29] | – | > 115 | – | 165 | –
8 | COC(=O)c1c(SC)nc2ccnn2c1NCc1ccccc1 [compound 121] | – | > 115 | – | 158.5 to 160.5 | –
9 | CSc1nc2ccnn2c(NCCCn2ccnc2)c1C#N [compound 83] | – | > 115 | – | 144 to 146 | –
10 | CSc1nc2ccnn2c(NCC2CCCCO2)c1C#N (centres unmarked) [compound 11] | > 115 | – | – | 121 to 122 | –
11 | CCNc1c(C#N)c(SC)nc2ccnn12 [compound 15] | – | > 115 | – | 133 | –
12 | CCOCSc1nc2ccnn2c(NCc2ccncc2)c1C#N [compound 118] | > 115 | > 115 | – | 160 to 161.6 | –
13 | CSc1nc2ccnn2c(Nc2cccnc2)c1C#N [compound 178] | > 115 | > 115 | – | 214 to 215 | –
14 | CCOC(=O)c1c(SC)nc2ccnn2c1NCc1ccccc1 [compound 222] | > 115 | – | – | 114 to 115 | –
15 | CCOC(=O)c1c(SC)nc2ccnn2c1Nc1ccc(C#N)cc1 [compound 224] | > 115 | – | – | 178 | –
16 | CSc1nc2ccnn2c(NO)c1C#N [compound 205] | > 115 | – | – | 214 to 218 | –
17 | N#Cc1cnc2ccnn2c1NCc1ccccc1 [compound 28] | – | > 115 | – | 125 | –
18 | CSc1nc2ccnn2c(NC2CCCC2)c1C#N [compound 79] | > 115 | – | – | 118 | –
19 | C=CCONc1c(C#N)c(SC)nc2ccnn12 [compound 174] | – | > 115 | – | 129 to 130 | –
20 | CSc1nc2ccnn2c(Nc2ccc([N+](=O)[O-])cc2)c1C#N [compound 200] | > 115 | > 115 | 79 | > 270 | –
21 | CSc1nc2ccnn2c(NCc2ccncc2)c1[N+](=O)[O-] [compound 126] | > 115 | – | – | 154 to 155 | –
22 | CSc1nc2ccnn2c(NOCc2ccccc2)c1C#N [compound 172] | > 115 | > 115 | – | 177 to 178 | –
23 | CSc1nc2ccnn2c(NCc2ccccc2)c1C#N [Compound No. 2, 7-benzylamino-5-methylthiopyrazolo[1,5-a]pyrimidine-6-carbonitrile] | > 115 | > 115 | – | 165 | –
24 | CSc1nc2cc(C)nn2c(NOCc2ccccc2)c1C#N [compound 190] | – | > 115 | – | 155 to 156 | –
25 | CSc1nc2cc(C)nn2c(Nc2cccc(C)c2)c1C#N [compound 191] | > 115 | – | – | 174 to 176 | –
26 | CSc1nc2ccnn2c(NCCc2ccccn2)c1C#N [compound 206] | > 115 | – | – | 138 to 139 | –
27 | CSc1nc2ccnn2c(Nc2ccc3c(c2)OCO3)c1C#N [compound 211] | > 115 | > 115 | – | 158 to 159 | –
28 | CCSc1nc2ccnn2c(NCc2ccncc2)c1C#N [compound 68] | > 115 | > 115 | – | 196 to 196.4 | –
